According to the NIST ThermoML archive (doi:10.1021/acs.jced.9b00536):

Experiment: wn = mass fraction of the nth substance listed
Conditions: 100 kPa, Liquid, Vibrating tube method

[Na+].[OH-] [sodium hydroxide] + O
mass density [kg/m3]
Conditions	303.15 K	313.15 K	323.15 K	333.15 K	343.15 K	353.15 K
w1 = 0.2	1213.8	1208	1202.1	1196.1	1190	1184.4
w1 = 0.21	1223.5	1219	1213	1206.8	1200.5	1194
w1 = 0.22	1236.2	1230.3	1224.3	1218.1	1212	1206.4
w1 = 0.23	1246.1	1240.2	1234.1	1227.9	1221.8	1216.2
w1 = 0.24	1256.6	1250.6	1244.4	1238.3	1232.2	1226.7
w1 = 0.25	1268	1262	1256	1249.5	1243	1236.5
w1 = 0.26	1279.4	1273.3	1267.1	1260.8	1254.6	1249
w1 = 0.27	1289.2	1283	1276.7	1270.3	1264.1	1258.3
w1 = 0.28	1299	1293.7	1287.4	1281	1274.7	1269.1
w1 = 0.29	1311	1304.5	1298.5	1292	1285.5	1278.5
w1 = 0.3	1321.7	1315.4	1308.9	1302.4	1295.9	1289.9
w1 = 0.31	1330.9	1324.5	1318	1311.4	1304.9	1298.7
w1 = 0.32	1343.4	1337	1330.4	1323.8	1317.2	1311.1
w1 = 0.33	1353.5	1347	1340.4	1333.7	1327.1	1321
w1 = 0.34	1364.3	1357.8	1351.1	1344.4	1337.8	1331.6
w1 = 0.35	1372.5	1365.9	1359.2	1352.5	1345.9	1339.8
w1 = 0.36	1381.8	1375.5	1369	1362.9	1356.8	1349.8
w1 = 0.37	1393.6	1386.8	1380	1373.2	1366.5	1360.2
w1 = 0.38	1403.3	1396.5	1389.6	1382.8	1376.1	1369.9
w1 = 0.39	1413.5	1406.5	1400	1393	1386	1379.5
w1 = 0.4	1423.3	1416.3	1409.3	1402.4	1395.6	1389.6
w1 = 0.41	1432.9	1425.9	1418.9	1412	1405.1	1398.7
w1 = 0.42	1443.2	1436.2	1429.2	1422.2	1415.4	1409
w1 = 0.43	1452.9	1445.8	1438.8	1431.8	1425	1418.6
w1 = 0.44	1460.9	1453.8	1446.7	1439.7	1432.8	1426.3
w1 = 0.45	1470.7	1463.5	1456.5	1449.5	1442.6	1436.2
w1 = 0.46	1479.6	1472.7	1465.9	1459	1451.5	1445.2
w1 = 0.47	1489.7	1482.5	1475.3	1468.3	1461.4	1454.8
w1 = 0.48	1499.9	1492.6	1485.4	1478.3	1471.4	1465
w1 = 0.49	1509.4	1502.1	1494.9	1487.9	1481	1474.6
w1 = 0.5	1518.4	1511.1	1503.9	1496.9	1490	1483.6
